Assays:
[1] = system: Arabidopsis T1 plants transformed with 24DT21 nucleotide sequence; experiment: Herbicide resistance effect test of transgenic Arabidopsis T1 plants (spraying); assay type: in vivo, Arabidopsis thaliana; settings: genotype 24DT21, 560 g ae/ha (1x)
Description: (§1) 24DT21 gene was used to transform Arabidopsis for the first time. At first, T1 transformants were selected from the background of un-transformed seeds, using glufosinate-ammonium selection scheme. About 20000 T1 seeds are screened among which 139 strains of T1 generation positive transformants (PAT gene) were identified, i.e. the transformation efficiency was about 0.7%. Herbicide resistance effect tests to 2,4-D dimethyl ammonium salt and agroxone of Arabidopsis T1 plants transformed with 24DT21 nucleotide sequence, control nucleotide sequence respectively and wild-type Arabidopsis plants were performed after 18 days of planting.
(§2) Arabidopsis T1 plants transformed with 24DT21 nucleotide sequence, control nucleotide sequence respectively and wild-type Arabidopsis plants were sprayed with 2,4-D dimethyl ammonium salt (560 g ae/ha, 1-fold concentration in field), agroxone (560 g ae/ha, 1-fold concentration in field) and blank solvent (water). Resistance conditions of the plants were counted 7 days and 14 days after spraying. Plants with growth conditions consistent with blank solvent (water) 7 days after spaying were classified as highly resistant plants; Plants with curly rosette leaves 7 days after spaying were classified as moderately resistant plants; Plants incapable of bolting 14 days after spaying were classified as low-resistant plants and the dead plants 14 days after spaying were classified as non-resistant plants. Because each Arabidopsis T1 plant is an independent transformation event, significant differences of individual T1 responses can be expected under a given dose.

[2] = system: Arabidopsis T1 plants transformed with control nucleotide sequence; experiment: Herbicide resistance effect test of Arabidopsis T1 plants, control sequence (spraying); assay type: in vivo, Arabidopsis thaliana; settings: genotype Control, 560 g ae/ha (1x)
Description: as §1, §2

[3] = system: wild-type Arabidopsis plants; experiment: Herbicide resistance effect test of wild-type Arabidopsis (spraying); assay type: in vivo, Arabidopsis thaliana; settings: genotype Wild, 560 g ae/ha (1x)
Description: as §1, §2

[4] = system: Soybean plants containing 24DT21 nucleotide sequence (S1, S2, S3); experiment: Herbicide-resistance effect of transgenic soybean T1 plants (spraying, damage degree); assay type: in vivo; settings: 2240 g ae/ha (4x); for Average damage % 6 HAT: 6 hours after spraying; for Average damage % 2 DAT: 2 days after spraying; for Average damage % 7 DAT: 7 days after spraying; for Average damage % 14 DAT: 14 days after spraying
Experimental: (§3) Herbicide resistance effects tests to 2,4-D dimethyl ammonium salt and agroxone of soybean plants containing 24DT21 nucleotide sequence and control nucleotide sequence respectively and wild type soybean plants (stages V3-V4) were performed respectively.
(§4) Soybean plants containing 24DT21 nucleotide sequence, control nucleotide sequence and wild type soybean plants were taken and spayed with 2,4-D dimethyl ammonium salt (2240 g ae/ha, four-folds concentration in field), agroxone (2240 g ae/ha, four-folds concentration in field) and blank solvent (water). Take statistics of the damage degree of each plant caused by herbicides according to the curling degree of leaves and the damage degree of growing point six hours ([…]), two days (2DAT), seven days (7DAT) and 14 days (14DAT) after spraying respectively: if leaves are flat like wild-type leaves and the growing point is intact, the damage degree is 0%; if leaves curl up and wilt and the growing point is died, the damage degree is 100%. There are three strains contained a transferred 24DT21 nucleotide sequence (S1, S2 and S3), two strains contained a transferred control sequence (S4 and S5) and one wild-type strain (CK1) in total; select 10˜15 plants from each strain for testing.

[5] = system: Soybean plants containing control nucleotide sequence (S4, S5); experiment: Herbicide-resistance effect of soybean plants, control sequence (spraying, damage degree); assay type: in vivo; settings: 2240 g ae/ha (4x); for Average damage % 6 HAT: 6 hours after spraying; for Average damage % 2 DAT: 2 days after spraying; for Average damage % 7 DAT: 7 days after spraying; for Average damage % 14 DAT: 14 days after spraying
Experimental: as §3, §4

[6] = system: wild type soybean plants (CK1); experiment: Herbicide-resistance effect of wild type soybean (spraying, damage degree); assay type: in vivo; settings: wild-type soybean strain CK1, 2240 g ae/ha (4x)
Experimental: as §3, §4

[7] = system: Corn plants containing 24DT21 nucleotide sequence (S6, S7, S8); experiment: Herbicide-resistance effect test of transgenic corn T1 plants (spraying, prop root development); assay type: in vivo; settings: 8960 g ae/ha (16x), 21 days after spraying; for Abnormal development of brace roots / Normal development of brace roots: number of plants
Experimental: (§5) Herbicide resistance effects tests to 2,4-D dimethyl ammonium salt and agroxone of corn plants containing 24DT21 nucleotide sequence, control nucleotide sequence respectively and wild type corn plants (stages V3-V4) were performed respectively.
(§6) Corn plants containing 24DT21 nucleotide sequence, control nucleotide sequence respectively and wild type corn plants were taken and spayed with 2,4-D dimethyl ammonium salt (8960 g ae/ha, 16-folds concentration in field), agroxone (8960 g ae/ha, 16-folds concentration in field) and blank solvent (water) respectively. Prop root development was counted 21 days after spaying. Three strains (S6, S7 and S8) of corn plants transformed with 24DT21 nucleotide sequence, two strains (S9 and S10) of corn plants transformed with control nucleotide sequence and 1 strain of wild type (CK2) corn were selected and 10-15 plants from each stain were tested.

[8] = system: Corn plants containing control nucleotide sequence (S9, S10); experiment: Herbicide-resistance effect test of corn plants, control sequence (spraying, prop root development); assay type: in vivo; settings: 8960 g ae/ha (16x), 21 days after spraying; for Abnormal development of brace roots / Normal development of brace roots: number of plants
Experimental: as §5, §6

[9] = system: wild type corn plants (CK2); experiment: Herbicide-resistance effect test of wild type corn (spraying, prop root development); assay type: in vivo; settings: wild type corn strain CK2, 8960 g ae/ha (16x), 21 days after spraying
Experimental: as §5, §6

[10] = number of plants of 32 dead 14 days after spraying
[11] = number of plants of 32 incapable of bolting 14 days after spraying
[12] = number of plants of 32 with curly rosette leaves 7 days after spraying
[13] = number of plants of 32 with growth consistent with blank solvent 7 days after spraying
[14] = soybean strain S4 (control sequence)
[15] = soybean strain S5 (control sequence)
[16] = corn strain S9 (control sequence)
[17] = corn strain S10 (control sequence)

CNC.O=C(O)COc1ccc(Cl)cc1Cl [2,4-D dimethyl ammonium salt]
Non-resistant [1, 10]: 4 | Low resistant [1, 11]: 1 | Moderate resistant [1, 12]: 3 | High resistant [1, 13]: 24 | Non-resistant [2, 10]: 32 | Low resistant [2, 11]: 0 | Moderate resistant [2, 12]: 0 | High resistant [2, 13]: 0 | Non-resistant [3, 10]: 32 | Low resistant [3, 11]: 0 | Moderate resistant [3, 12]: 0 | High resistant [3, 13]: 0 | Average damage % 6 HAT ([4]; soybean strain S1 (24DT21)): 6% | Average damage % 2 DAT ([4]; soybean strain S1 (24DT21)): 4% | Average damage % 7 DAT ([4]; soybean strain S1 (24DT21)): 0% | Average damage % 14 DAT ([4]; soybean strain S1 (24DT21)): 0% | Average damage % 6 HAT ([4]; soybean strain S2 (24DT21)): 11% | Average damage % 2 DAT ([4]; soybean strain S2 (24DT21)): 4% | Average damage % 7 DAT ([4]; soybean strain S2 (24DT21)): 0% | Average damage % 14 DAT ([4]; soybean strain S2 (24DT21)): 0% | Average damage % 6 HAT ([4]; soybean strain S3 (24DT21)): 3% | Average damage % 2 DAT ([4]; soybean strain S3 (24DT21)): 0% | Average damage % 7 DAT ([4]; soybean strain S3 (24DT21)): 0% | Average damage % 14 DAT ([4]; soybean strain S3 (24DT21)): 0% | Average damage % 6 HAT [5, 14]: 46% | Average damage % 2 DAT [5, 14]: 76% | Average damage % 7 DAT [5, 14]: 96% | Average damage % 14 DAT [5, 14]: 100% | Average damage % 6 HAT [5, 15]: 53% | Average damage % 2 DAT [5, 15]: 77% | Average damage % 7 DAT [5, 15]: 91% | Average damage % 14 DAT [5, 15]: 100% | Average damage % 6 HAT ([6]; 6 hours after spraying): 48% | Average damage % 2 DAT ([6]; 2 days after spraying): 72% | Average damage % 7 DAT ([6]; 7 days after spraying): 94% | Average damage % 14 DAT ([6]; 14 days after spraying): 100% | Proportion of normal development of brace roots ([7]; corn strain S6 (24DT21)): 100.00% | Abnormal development of brace roots ([7]; corn strain S6 (24DT21)): 0 | Normal development of brace roots ([7]; corn strain S6 (24DT21)): 12 | Proportion of normal development of brace roots ([7]; corn strain S7 (24DT21)): 100.00% | Abnormal development of brace roots ([7]; corn strain S7 (24DT21)): 0 | Normal development of brace roots ([7]; corn strain S7 (24DT21)): 13 | Proportion of normal development of brace roots ([7]; corn strain S8 (24DT21)): 100.00% | Abnormal development of brace roots ([7]; corn strain S8 (24DT21)): 0 | Normal development of brace roots ([7]; corn strain S8 (24DT21)): 11 | Proportion of normal development of brace roots [8, 16]: 0% | Abnormal development of brace roots [8, 16]: 12 | Normal development of brace roots [8, 16]: 0 | Proportion of normal development of brace roots [8, 17]: 0% | Abnormal development of brace roots [8, 17]: 11 | Normal development of brace roots [8, 17]: 0 | Proportion of normal development of brace roots [9]: 0% | Abnormal development of brace roots ([9]; number of plants): 15 | Normal development of brace roots ([9]; number of plants): 0
